Data taken from ChEMBL document CHEMBL1201862, “PubChem BioAssay data set” (2004).
Calls of active or inactive are those of the source.

Columns and labels:
Type in all cases: functional
[1] = target: T1, High affinity choline transporter 1 (Homo sapiens, UniProt Q9GZV3); assay: human choline transporter blockers, potency – cell-based, 10-point CRC, membrane potential dye, dose response (AID 588401);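 note: membrane potential dye fluorescence of choline-evoked depolarization via CHT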
T1 sequence (Q9GZV3 whole entry): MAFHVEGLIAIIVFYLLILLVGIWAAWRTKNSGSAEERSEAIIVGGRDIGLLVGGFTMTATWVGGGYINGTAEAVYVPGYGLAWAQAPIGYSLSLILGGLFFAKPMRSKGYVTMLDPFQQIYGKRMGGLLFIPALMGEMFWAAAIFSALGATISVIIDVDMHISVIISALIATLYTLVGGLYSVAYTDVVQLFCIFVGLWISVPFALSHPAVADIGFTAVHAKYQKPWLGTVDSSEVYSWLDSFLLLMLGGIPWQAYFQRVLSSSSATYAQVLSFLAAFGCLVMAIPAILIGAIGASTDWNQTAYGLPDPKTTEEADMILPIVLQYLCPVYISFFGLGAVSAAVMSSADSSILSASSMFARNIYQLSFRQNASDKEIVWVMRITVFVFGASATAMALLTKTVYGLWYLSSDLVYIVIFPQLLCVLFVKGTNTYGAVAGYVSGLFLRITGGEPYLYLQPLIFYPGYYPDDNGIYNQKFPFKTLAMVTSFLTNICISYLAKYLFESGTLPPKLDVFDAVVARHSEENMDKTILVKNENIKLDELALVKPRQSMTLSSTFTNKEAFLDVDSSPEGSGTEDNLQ

[2] = target: T1, High affinity choline transporter 1; assay: human choline transporter blockers, potency – cell-based, 5-point CRC, membrane potential dye, dose response (AID 504840)
[3] = target: T2, Apoptotic protease-activating factor 1 (Homo sapiens, UniProt O14727); assay: SAR analysis of small molecule Activators of Apaf-1 in a Fluorescent assay - set 2.; conditions: read-out: EC50_Mean
T2 sequence (O14727 whole entry): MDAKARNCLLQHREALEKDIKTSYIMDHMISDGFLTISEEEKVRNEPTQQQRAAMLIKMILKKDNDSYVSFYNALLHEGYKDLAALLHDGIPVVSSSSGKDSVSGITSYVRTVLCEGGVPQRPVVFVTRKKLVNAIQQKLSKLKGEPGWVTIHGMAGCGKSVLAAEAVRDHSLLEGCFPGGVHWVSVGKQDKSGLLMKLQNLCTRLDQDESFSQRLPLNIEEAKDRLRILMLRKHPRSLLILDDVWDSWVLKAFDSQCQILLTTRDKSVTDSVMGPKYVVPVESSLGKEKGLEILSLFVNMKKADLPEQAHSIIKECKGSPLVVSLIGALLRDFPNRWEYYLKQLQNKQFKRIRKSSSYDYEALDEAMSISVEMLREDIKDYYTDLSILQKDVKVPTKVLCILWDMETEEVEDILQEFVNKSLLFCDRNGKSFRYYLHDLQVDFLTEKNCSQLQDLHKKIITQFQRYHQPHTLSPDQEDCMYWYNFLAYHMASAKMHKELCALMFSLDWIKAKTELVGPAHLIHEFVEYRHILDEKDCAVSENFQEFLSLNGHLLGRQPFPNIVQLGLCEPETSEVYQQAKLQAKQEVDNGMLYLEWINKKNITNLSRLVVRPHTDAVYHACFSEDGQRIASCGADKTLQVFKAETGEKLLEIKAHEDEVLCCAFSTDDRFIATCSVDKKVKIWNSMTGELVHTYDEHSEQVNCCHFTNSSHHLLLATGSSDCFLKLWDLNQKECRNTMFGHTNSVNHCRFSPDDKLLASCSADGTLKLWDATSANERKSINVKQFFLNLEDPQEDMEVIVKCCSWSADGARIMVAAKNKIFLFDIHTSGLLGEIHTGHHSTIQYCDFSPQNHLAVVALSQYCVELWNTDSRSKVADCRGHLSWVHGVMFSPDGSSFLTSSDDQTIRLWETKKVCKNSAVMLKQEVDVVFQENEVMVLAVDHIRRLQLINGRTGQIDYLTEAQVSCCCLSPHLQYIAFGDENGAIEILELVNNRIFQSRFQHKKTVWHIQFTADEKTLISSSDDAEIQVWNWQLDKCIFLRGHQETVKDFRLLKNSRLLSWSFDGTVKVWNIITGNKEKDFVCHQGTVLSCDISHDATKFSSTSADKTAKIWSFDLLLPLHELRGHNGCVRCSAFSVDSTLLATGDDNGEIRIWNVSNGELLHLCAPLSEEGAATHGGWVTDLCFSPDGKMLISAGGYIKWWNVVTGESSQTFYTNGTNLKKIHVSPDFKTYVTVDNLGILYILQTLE

[4] = SAR analysis of small molecule activators of Apaf-1 using a LZ-Caspase-9/Caspase-3 Fluorescent Selectivity assay - Set 2.; conditions: read-out: EC50_Mean

Row | SMILES | IC50 [1] | IC50 [2] | EC50 [3] | EC50 [4]
1 | CCOC(=O)c1cc(C(=O)NC(C)c2ccccc2)c(C)nc1O (centres undefined) | 0.447 µM (active) | 1.77 µM (active) |  | 
2 | CC(Cn1cnc2ccccc21)C(=O)O (centres undefined) |  |  | 83.2 µM (active) | > 100 µM (inactive)
